Source: ChEMBL document CHEMBL4414658, “Melongenaterpenes A-L, Vetispirane-Type Sesquiterpenoids from the Roots of Solanum melongena” (J Nat Prod, 2019)
Activity calls are given as the source filed them.

Tests used:
Format in all cases: functional, cell-based
MCF7 = assay: Cytotoxicity against human MCF7 cells assessed as reduction in cell viability incubated for 24 hrs by MTT assay
HepG2 = assay: Cytotoxicity against human HepG2 cells assessed as reduction in cell viability incubated for 24 hrs by MTT assay
HeLa = assay: Cytotoxicity against human HeLa cells assessed as reduction in cell viability incubated for 24 hrs by MTT assay

Measured: Activity

C=C(CO)[C@@H]1CC[C@]2(C1)[C@H](CO)C[C@@H](O)C[C@H]2C
inactive: MCF7 | HepG2 | HeLa

C=C(CO[C@@H]1O[C@H](CO[C@@H]2OC[C@H](O)[C@H](O)[C@H]2O)[C@@H](O)[C@H](O)[C@H]1O)[C@@H]1CC[C@@]2(C1)C(C)=CC(=O)C[C@H]2C
inactive: MCF7 | HepG2 | HeLa

C=C(CO[C@@H]1O[C@H](CO)[C@@H](O)[C@H](O)[C@H]1O)[C@@H]1CC[C@@]2(C1)[C@H](C)[C@@H](O)[C@H](O)C[C@H]2C(OC)OC
inactive: MCF7 | HepG2 | HeLa

C=C(CO)[C@@H]1CC[C@]2(C1)[C@@H](CO)C[C@@H](O)[C@H](O)[C@H]2C
inactive: MCF7 | HepG2 | HeLa

C=C(CO)[C@@H]1CC[C@]2(C1)[C@H](CO)C[C@@H](O)[C@H](O)[C@H]2C
inactive: MCF7 | HepG2 | HeLa

C=C(CO[C@@H]1O[C@H](CO)[C@@H](O)[C@H](O)[C@H]1O)[C@@H]1CC[C@]2(C1)[C@@H](C(OC)OC)C[C@@H](O)[C@H](O)[C@H]2C
inactive: MCF7 | HepG2 | HeLa
